Test system: HT29 human colon tumour cells
Assay: Cell proliferation assays
Type: cell-based
Settings: HT-29, 72 hours
Experimental: Cell Proliferation Assays Cells were seeded into multi-well plates at 20000–40000 cells/ml in growth medium containing 5% FCS and incubated overnight at 37° C. The compounds were prepared in fresh medium at an appropriate concentration and added to the wells containing the cells. These were then incubated for a further 72 hours. Cells were then either removed from the wells by incubating with trypsin/EDTA and counted using a Coulter counter, or treated with XTT/PMS in PBSA and optical densities read at 450 nm.

With `CNC(=O)COc1ccccc1Oc1ccc(Nc2c(C#N)cnc3cc(NCCCN4CCOCC4)c(OC)cc23)cc1` [Compound 11] the IC50 was 1300 nM.

From patent US7067532B2, “Substituted quinolines as antitumor agents” (AstraZeneca, priority 2000, dated 2006)
